Experimental data from patent US8501741B2, “Optically active compound of prulifloxacin for treating infection and preparation method thereof” (priority 2010, dated 2013).

Columns and labels:
Escherichia coli = assay: Systemic infection in mouse, E. coli; format: in vivo; conditions: Kunming mice, intraperitoneal infection with minimal lethal dose, drug by gavage 1 hour after infection, 7 days observation, Bliss method; for ED50: Escherichia coli, ip
Description: (§1) 1. Origin of testing samples:
(§2) • Levo-ofloxacin was commercially available.
(§3) Prulifloxacin was self-made product, prepared according to the method disclosed in the publication J. Med. Chem. 1992, 35, 4727-4738.
(§4) Levo-prulifloxacin, dextro-prulifloxacin, levo-prulifloxacin hydrochloride, levo-prulifloxacin mesylate were self-made, prepared according to the method described in examples (see respective ordinal number in parenthesis following name of testing drug in Table 6);
(§5) 2. Experimental strains: Bacteria for infecting animals were pathogenic strains isolated from clinic;
(§6) 3. Preparation of liquid bacteria culture: 2-3 colonies were picked and inoculated into M-H broth, followed by incubation for 18 hours at 37° C. The culture was diluted appropriately with 5% dried yeast liquid for use.
(§7) 4. Experimental animals: Healthy SPF Kunming mice were selected, with 18-22 g in body weight, half male and half female.
(§8) 5. Determination of minimal lethal dose of bacteria: Mice were divided randomly, resulting in 10 mice in each group, half male and half female. The above-mentioned bacterial cultures in different dilutions were injected intraperitoneally into mice, in the amount of 0.5 mL per mouse, followed by continuous observation for 7 days after infection and recording the number of death mice. The minimal amount of bacteria which caused 100% death of mice was deemed as minimal lethal dose of bacteria and thereby was adopted for infection tests in vivo. 6. Preparation of testing drugs: The testing drugs were prepared with 1% CMC, respectively. 7. Method for infection and treatment: Experimental animals were divided randomly but evenly based on gender and body weight, resulting in 10 mice in each group, half male and half female. Minimal lethal dose of bacteria were injected intraperitoneally into mice in amount of 0.5 mL/mice, respectively. After infected for 1 hour, the testing drugs in different doses were administered to mice by gavage in the amount of 0.2 ml/10 g, respectively. Seven dose groups of 0.05, 0.10, 0.20, 0.40, 0.80, 1.60, 3.20 mg/kg were set up for Escherichia coli while seven dose groups of 0.50, 1.0, 2.0, 4.0, 8.0, 16.0, 32.0 mg/kg were set up for Pseudomonas aeruginosa. Observation was conducted after administration and death statuses of the mice were recorded. A control group was set up and the number of mice which died within 7 days after infection was recorded at the same time. The obtained data were processed by Bliss method to calculate ED50. 8.

[1] = Acute toxicity test in NIH mice, limited dosage by gavage; conditions: both sexes, mouse, in vivo, po, 5000 mg/kg, single gavage, 2 weeks observation, read-out: LD50 of oral administration
Method: Acute toxicity test was conducted in NIH mice by administrating limited-dosages of drugs.
Levo-prulifloxacin; control groups: racemic prulifloxacin group and blank control group
20 NIH mice in each group, half male and half female, 18˜22 g in body weight, were fasted overnight. Levo-prulifloxacin and racemic prulifloxacin were prepared to a 250 mg/ml suspension with 0.3% CMC, respectively, and then administered to the mice by gavage at once in the amount of 0.2 mL/10 g. After administration, observation was firstly conducted for 4 hours continuously, and then once a day for 2 weeks continuously. Animals' responses to toxicity, appearing time and recovering time thereof were recorded. On Day 2, 4, 8, 11 and 15, body weight of the animals were measured and amounts of feed intake were determined. Observation indexes included diet, appearance, behavior, secretion, excrement and the like Animals' death was recorded, starting time, severity, duration of toxic symptoms and toxic reactions, whether the symptoms or reactions are reversible and the like were also recorded. Animals dying from poisoning and dying animals were dissected roughly in time while all other animals were dissected roughly after completing observation. […] The obtained data were processed by Bliss method to calculate LD50.

[2] = background statement; cited from earlier work
Pseudomonas aeruginosa = assay: Systemic infection in mouse, P. aeruginosa; format: in vivo; conditions: Kunming mice, intraperitoneal infection with minimal lethal dose, drug by gavage 1 hour after infection, 7 days observation, Bliss method; for ED50: Pseudomonas aeruginosa, ip
Description: as §1, §2, §3, §4, §5, §6, §7, §8

bacteria = conditions: ulifloxacin enantiomers, small samples from chiral preparation chromatographic column; cited from earlier work

Row | Structure (SMILES) | ED50 (Escherichia coli) [mg/kg] | ED50 (Pseudomonas aeruginosa) [mg/kg] | ED50 E. coli (Escherichia coli) [mg/kg] | ED50 P. aeruginosa (Pseudomonas aeruginosa) [mg/kg] | further results
1 | Cc1oc(=O)oc1CN1CCN(c2cc3c(cc2F)c(=O)c(C(=O)O)c2n3C(C)S2)CC1 (racemic) [(+/−) Prulifloxacin, (±)6-fluoro-1-methyl-7-[4-(5-methyl-2-oxo-1,3-dioxolen-4-yl)methyl-1-piperazinyl]-4-oxo-4H-[1,3]thiazeto[3,2-α]quinoline-3-carboxylic acid, reference compound] | 0.53 | 4.04 |  |  | LD50 at 2 weeks [1]: > 5000 mg/kg; half-life [2]: 8 to 9 h; time at which peak blood concentration is attained [2]: 0.5 to 1 h
2 | C[C@@H]1Sc2c(C(=O)O)c(=O)c3cc(F)c(N4CCNCC4)cc3n21 (single isomer, unassigned) [levo-enantiomer] |  |  |  |  | antibacterial activity of levo-enantiomer relative to dextro-enantiomer (bacteria): 2 to 8 times
3 | Cc1oc(=O)oc1CN1CCN(c2cc3c(cc2F)c(=O)c(C(=O)O)c2n3C(C)S2)CC1 (single isomer, unassigned; (+)) [(+) Prulifloxacin] |  |  | 1.58 | 8.20 | 
4 | Cc1oc(=O)oc1CN1CCN(c2cc3c(cc2F)c(=O)c(C(=O)O)c2n3[C@H](C)S2)CC1.Cl [(−) Prulifloxacin hydrochloride, S-(−)-6-fluoro-1-methyl-7-[4-(5-methyl-2-oxo-1,3-dioxolen-4-yl)methyl-1-piperazinyl]-4-oxo-4H-[1,3]thiazeto[3,2-α]quinoline-3-carboxylic acid hydrochloride] |  |  | 0.12 | 1.25 | 
5 | CS(=O)(=O)O.Cc1oc(=O)oc1CN1CCN(c2cc3c(cc2F)c(=O)c(C(=O)O)c2n3[C@H](C)S2)CC1 [(−) Prulifloxacin mesylate, S-(−)-6-fluoro-1-methyl-7-[4-(5-methyl-2-oxo-1,3-dioxolen-4-yl)methyl-1-piperazinyl]-4-oxo-4H-[1,3]thiazeto[3,2-α]quinoline-3-carboxylic acid mesylate] |  |  | 0.11 | 1.22 | 
6 | Cc1oc(=O)oc1CN1CCN(c2cc3c(cc2F)c(=O)c(C(=O)O)c2n3[C@H](C)S2)CC1 [(−) Prulifloxacin, S-(−)-6-fluoro-1-methyl-7-[4-(5-methyl-2-oxo-1,3-dioxolen-4-yl)methyl-1-piperazinyl]-4-oxo-4H-[1,3]thiazeto[3,2-α]quinoline-3-carboxylic acid] | 0.11 | 1.02 |  |  | LD50 at 2 weeks [1]: > 5000 mg/kg
7 | CC1COc2c(N3CCN(C)CC3)c(F)cc3c(=O)c(C(=O)O)cn1c23 (centres unmarked) [Ofloxacin, reference compound] | 0.82 | 16.1 |  |  | 
